Test results as given in ChEMBL document CHEMBL4507301 (2021).

Key:
[1] = tested on: Tyrosine-protein kinase ABL1 (Homo sapiens), P00519 [Q252H]; conditions: Compound concentration 1000.0 nM
[2] = target: 5'-AMP-activated protein kinase catalytic subunit alpha-2 (Homo sapiens) (UniProt P54646); conditions: Compound concentration 1000.0 nM
[3] = target: Aurora kinase A (Homo sapiens) (UniProt O14965); conditions: Compound concentration 1000.0 nM
[4] = target: Mitotic checkpoint serine/threonine-protein kinase BUB1 (Homo sapiens) (UniProt O43683); conditions: Compound concentration 1000.0 nM
[5] = target: Calcium/calmodulin-dependent protein kinase type 1 (Homo sapiens) (UniProt Q14012); conditions: Compound concentration 1000.0 nM
[6] = target: Cyclin-dependent kinase 4 (Homo sapiens) (UniProt P11802); conditions: Compound concentration 1000.0 nM
[7] = target: Ephrin type-A receptor 1 (Homo sapiens) (UniProt P21709); conditions: Compound concentration 1000.0 nM
[8] = target: Ephrin type-A receptor 2 (Homo sapiens) (UniProt P29317); conditions: Compound concentration 1000.0 nM
[9] = target: Receptor tyrosine-protein kinase erbB-2 (Homo sapiens) (UniProt P04626); conditions: Compound concentration 1000.0 nM
[10] = target: Mitogen-activated protein kinase 15 (Homo sapiens) (UniProt Q8TD08); conditions: Compound concentration 1000.0 nM
[11] = target: Tyrosine-protein kinase Fes/Fps (Homo sapiens) (UniProt P07332); conditions: Compound concentration 1000.0 nM
[12] = target: Fibroblast growth factor receptor 2 (Homo sapiens) (UniProt P21802); conditions: Compound concentration 1000.0 nM
[13] = target: Fibroblast growth factor receptor 3 (Homo sapiens) (UniProt P22607); conditions: Compound concentration 1000.0 nM
[14] = target: G protein-coupled receptor kinase 3 (Homo sapiens) (UniProt P35626); conditions: Compound concentration 1000.0 nM
[15] = target: Glycogen synthase kinase-3 beta (Homo sapiens) (UniProt P49841); conditions: Compound concentration 1000.0 nM
[16] = target: Mitogen-activated protein kinase kinase kinase kinase 4 (Homo sapiens) (UniProt O95819); conditions: Compound concentration 1000.0 nM
[17] = tested on: Hepatocyte growth factor receptor (Homo sapiens), P08581 [M1250T]; conditions: Compound concentration 1000.0 nM
[18] = target: Serine/threonine-protein kinase MRCK alpha (Homo sapiens) (UniProt Q5VT25); conditions: Compound concentration 1000.0 nM
[19] = target: Muscle, skeletal receptor tyrosine-protein kinase (Homo sapiens) (UniProt O15146); conditions: Compound concentration 1000.0 nM
[20] = target: Myosin light chain kinase family member 4 (Homo sapiens) (UniProt Q86YV6); conditions: Compound concentration 1000.0 nM
[21] = target: Serine/threonine-protein kinase 38-like (Homo sapiens) (UniProt Q9Y2H1); conditions: Compound concentration 1000.0 nM
[22] = target: Serine/threonine-protein kinase Nek1 (Homo sapiens) (UniProt Q96PY6); conditions: Compound concentration 1000.0 nM
[23] = target: Mitogen-activated protein kinase 14 (Homo sapiens) (UniProt Q16539); conditions: Compound concentration 1000.0 nM
[24] = target: Phosphorylase b kinase regulatory subunit alpha, liver isoform (Homo sapiens) (UniProt P46019); conditions: Compound concentration 1000.0 nM
[25] = target: Phosphatidylinositol 4,5-bisphosphate 3-kinase catalytic subunit alpha isoform (Homo sapiens) (UniProt P42336); conditions: Compound concentration 1000.0 nM
[26] = target: Phosphatidylinositol 4-kinase beta (Homo sapiens) (UniProt Q9UBF8); conditions: Compound concentration 1000.0 nM
[27] = target: Serine/threonine-protein kinase N2 (Homo sapiens) (UniProt Q16513); conditions: Compound concentration 1000.0 nM
[28] = target: Serine/threonine-protein kinase D2 (Homo sapiens) (UniProt Q9BZL6); conditions: Compound concentration 1000.0 nM
[29] = tested on: Proto-oncogene tyrosine-protein kinase receptor Ret (Homo sapiens), P07949 [M918T]; conditions: Compound concentration 1000.0 nM
[30] = tested on: Proto-oncogene tyrosine-protein kinase receptor Ret (Homo sapiens), P07949 [V804L]; conditions: Compound concentration 1000.0 nM
[31] = target: Dual serine/threonine and tyrosine protein kinase (Homo sapiens) (UniProt Q6XUX3); conditions: Compound concentration 1000.0 nM
[32] = target: Ribosomal protein S6 kinase alpha-5 (Homo sapiens) (UniProt O75582); conditions: Compound concentration 1000.0 nM
[33] = target: Ribosomal protein S6 kinase alpha-2 (Homo sapiens) (UniProt Q15349); conditions: Compound concentration 1000.0 nM
[34] = target: Uncharacterized serine/threonine-protein kinase SBK3 (Homo sapiens) (UniProt P0C264); conditions: Compound concentration 1000.0 nM
[35] = target: STE20-like serine/threonine-protein kinase (Homo sapiens) (UniProt Q9H2G2); conditions: Compound concentration 1000.0 nM
[36] = target: Proto-oncogene tyrosine-protein kinase Src (Homo sapiens) (UniProt P12931); conditions: Compound concentration 1000.0 nM
[37] = target: Serine/threonine-protein kinase TAO3 (Homo sapiens) (UniProt Q9H2K8); conditions: Compound concentration 1000.0 nM
[38] = target: Non-receptor tyrosine-protein kinase TNK1 (Homo sapiens) (UniProt Q13470); conditions: Compound concentration 1000.0 nM
[39] = target: Serine/threonine-protein kinase TNNI3K (Homo sapiens) (UniProt Q59H18); conditions: Compound concentration 1000.0 nM
[40] = target: Serine/threonine-protein kinase ULK1 (Homo sapiens) (UniProt O75385); conditions: Compound concentration 1000.0 nM
[41] = target: Serine/threonine-protein kinase 32B (Homo sapiens) (UniProt Q9NY57); conditions: Compound concentration 1000.0 nM
[42] = target: D(3) dopamine receptor (Homo sapiens) (UniProt P35462); conditions: Compound concentration 10.0 uM
[43] = target: D(1B) dopamine receptor (Homo sapiens) (UniProt P21918); conditions: Compound concentration 10.0 uM
[44] = target: Histamine H4 receptor (Homo sapiens) (UniProt Q9H3N8); conditions: Compound concentration 10.0 uM
[45] = target: Muscarinic acetylcholine receptor M5 (Homo sapiens) (UniProt P08912); conditions: Compound concentration 10.0 uM

Calcium/calmodulin-dependent protein kinase type 1 (Homo sapiens), sequence (Q14012 whole entry, looked up): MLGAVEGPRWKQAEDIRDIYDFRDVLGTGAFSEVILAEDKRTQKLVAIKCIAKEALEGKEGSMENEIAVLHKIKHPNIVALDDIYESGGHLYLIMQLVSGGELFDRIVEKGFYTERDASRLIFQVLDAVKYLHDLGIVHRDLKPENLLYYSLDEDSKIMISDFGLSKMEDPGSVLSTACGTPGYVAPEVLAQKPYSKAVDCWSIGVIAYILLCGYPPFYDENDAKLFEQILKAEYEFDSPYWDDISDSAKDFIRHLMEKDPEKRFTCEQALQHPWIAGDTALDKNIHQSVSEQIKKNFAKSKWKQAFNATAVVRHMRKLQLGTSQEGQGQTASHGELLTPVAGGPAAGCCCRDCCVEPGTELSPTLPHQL
Serine/threonine-protein kinase 38-like (Homo sapiens), sequence (Q9Y2H1 2-464 limits assumed): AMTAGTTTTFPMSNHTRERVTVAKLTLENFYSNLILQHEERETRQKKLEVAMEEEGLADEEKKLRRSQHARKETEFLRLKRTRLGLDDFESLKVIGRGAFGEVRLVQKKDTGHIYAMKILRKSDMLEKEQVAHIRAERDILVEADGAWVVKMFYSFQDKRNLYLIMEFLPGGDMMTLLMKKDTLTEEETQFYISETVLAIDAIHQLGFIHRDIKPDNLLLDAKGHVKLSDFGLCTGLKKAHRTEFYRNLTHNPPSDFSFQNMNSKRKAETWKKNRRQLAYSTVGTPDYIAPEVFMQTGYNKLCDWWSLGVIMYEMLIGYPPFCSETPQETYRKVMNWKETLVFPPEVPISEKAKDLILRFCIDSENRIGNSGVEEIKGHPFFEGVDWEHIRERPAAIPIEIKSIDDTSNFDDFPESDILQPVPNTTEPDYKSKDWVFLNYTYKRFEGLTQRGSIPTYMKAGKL
Ephrin type-A receptor 2 (Homo sapiens), sequence (P29317 whole entry): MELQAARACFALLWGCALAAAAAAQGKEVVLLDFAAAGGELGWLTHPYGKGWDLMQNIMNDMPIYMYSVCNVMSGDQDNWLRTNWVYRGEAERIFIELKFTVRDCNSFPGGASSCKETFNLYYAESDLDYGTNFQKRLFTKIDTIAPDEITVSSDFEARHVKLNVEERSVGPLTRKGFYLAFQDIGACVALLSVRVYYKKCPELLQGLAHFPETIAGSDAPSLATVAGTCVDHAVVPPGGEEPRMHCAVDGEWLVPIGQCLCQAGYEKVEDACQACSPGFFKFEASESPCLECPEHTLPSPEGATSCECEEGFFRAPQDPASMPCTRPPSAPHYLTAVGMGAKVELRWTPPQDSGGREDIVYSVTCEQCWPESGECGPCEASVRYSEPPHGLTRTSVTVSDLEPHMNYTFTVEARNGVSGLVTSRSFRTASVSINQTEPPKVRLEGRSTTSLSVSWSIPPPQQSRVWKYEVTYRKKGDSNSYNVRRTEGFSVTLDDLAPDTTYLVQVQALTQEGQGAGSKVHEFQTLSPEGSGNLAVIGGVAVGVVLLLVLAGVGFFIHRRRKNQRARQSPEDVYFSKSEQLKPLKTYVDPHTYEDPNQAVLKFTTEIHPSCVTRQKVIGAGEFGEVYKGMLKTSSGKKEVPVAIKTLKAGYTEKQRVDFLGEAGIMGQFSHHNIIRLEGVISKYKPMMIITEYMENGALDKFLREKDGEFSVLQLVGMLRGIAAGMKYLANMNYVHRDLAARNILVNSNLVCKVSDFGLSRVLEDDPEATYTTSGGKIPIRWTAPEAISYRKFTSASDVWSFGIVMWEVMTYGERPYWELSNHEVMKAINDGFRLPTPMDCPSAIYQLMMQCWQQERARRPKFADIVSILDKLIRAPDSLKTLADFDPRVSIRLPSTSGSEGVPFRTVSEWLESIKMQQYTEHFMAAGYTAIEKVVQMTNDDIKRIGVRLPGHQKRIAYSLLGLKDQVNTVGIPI
Serine/threonine-protein kinase 32B (Homo sapiens), sequence (Q9NY57 whole entry): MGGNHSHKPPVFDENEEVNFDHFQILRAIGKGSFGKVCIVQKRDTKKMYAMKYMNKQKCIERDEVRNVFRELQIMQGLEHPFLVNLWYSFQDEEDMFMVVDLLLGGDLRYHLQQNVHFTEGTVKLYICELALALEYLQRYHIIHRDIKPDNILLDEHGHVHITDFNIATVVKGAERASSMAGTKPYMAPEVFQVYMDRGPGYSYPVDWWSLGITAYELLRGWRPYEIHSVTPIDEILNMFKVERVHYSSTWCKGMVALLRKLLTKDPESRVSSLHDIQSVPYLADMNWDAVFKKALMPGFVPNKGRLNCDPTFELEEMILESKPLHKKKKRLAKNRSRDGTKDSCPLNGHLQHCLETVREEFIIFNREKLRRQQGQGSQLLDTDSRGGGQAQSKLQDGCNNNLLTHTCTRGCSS
G protein-coupled receptor kinase 3 (Homo sapiens), sequence (P35626 whole entry): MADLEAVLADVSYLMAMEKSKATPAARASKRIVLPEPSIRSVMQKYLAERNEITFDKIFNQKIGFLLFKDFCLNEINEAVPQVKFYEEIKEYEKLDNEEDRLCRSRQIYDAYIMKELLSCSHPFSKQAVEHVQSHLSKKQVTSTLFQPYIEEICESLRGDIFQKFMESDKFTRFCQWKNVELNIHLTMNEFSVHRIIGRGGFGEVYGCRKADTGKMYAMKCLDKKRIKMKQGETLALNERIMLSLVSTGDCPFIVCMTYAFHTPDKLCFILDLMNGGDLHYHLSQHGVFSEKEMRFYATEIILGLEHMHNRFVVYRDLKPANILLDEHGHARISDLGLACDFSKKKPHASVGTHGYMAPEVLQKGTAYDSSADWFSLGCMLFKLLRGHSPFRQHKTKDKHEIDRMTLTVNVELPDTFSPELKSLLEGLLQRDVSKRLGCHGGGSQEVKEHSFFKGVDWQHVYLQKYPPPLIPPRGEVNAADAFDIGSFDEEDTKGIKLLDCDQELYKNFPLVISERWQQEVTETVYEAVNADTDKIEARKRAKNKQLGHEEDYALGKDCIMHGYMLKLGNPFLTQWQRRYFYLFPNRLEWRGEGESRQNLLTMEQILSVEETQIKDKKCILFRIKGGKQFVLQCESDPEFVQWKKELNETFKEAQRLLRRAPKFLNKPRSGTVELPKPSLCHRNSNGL
Uncharacterized serine/threonine-protein kinase SBK3 (Homo sapiens), sequence (P0C264 whole entry): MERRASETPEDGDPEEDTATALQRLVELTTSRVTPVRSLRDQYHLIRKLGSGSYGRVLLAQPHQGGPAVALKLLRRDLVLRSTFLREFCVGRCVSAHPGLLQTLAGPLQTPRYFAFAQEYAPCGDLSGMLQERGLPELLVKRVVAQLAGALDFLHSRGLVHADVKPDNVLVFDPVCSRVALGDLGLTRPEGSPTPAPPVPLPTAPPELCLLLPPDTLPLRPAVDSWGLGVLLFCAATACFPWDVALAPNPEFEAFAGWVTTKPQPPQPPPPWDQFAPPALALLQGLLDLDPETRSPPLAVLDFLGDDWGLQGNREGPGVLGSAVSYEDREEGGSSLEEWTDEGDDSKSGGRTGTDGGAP
STE20-like serine/threonine-protein kinase (Homo sapiens), sequence (Q9H2G2 whole entry, looked up): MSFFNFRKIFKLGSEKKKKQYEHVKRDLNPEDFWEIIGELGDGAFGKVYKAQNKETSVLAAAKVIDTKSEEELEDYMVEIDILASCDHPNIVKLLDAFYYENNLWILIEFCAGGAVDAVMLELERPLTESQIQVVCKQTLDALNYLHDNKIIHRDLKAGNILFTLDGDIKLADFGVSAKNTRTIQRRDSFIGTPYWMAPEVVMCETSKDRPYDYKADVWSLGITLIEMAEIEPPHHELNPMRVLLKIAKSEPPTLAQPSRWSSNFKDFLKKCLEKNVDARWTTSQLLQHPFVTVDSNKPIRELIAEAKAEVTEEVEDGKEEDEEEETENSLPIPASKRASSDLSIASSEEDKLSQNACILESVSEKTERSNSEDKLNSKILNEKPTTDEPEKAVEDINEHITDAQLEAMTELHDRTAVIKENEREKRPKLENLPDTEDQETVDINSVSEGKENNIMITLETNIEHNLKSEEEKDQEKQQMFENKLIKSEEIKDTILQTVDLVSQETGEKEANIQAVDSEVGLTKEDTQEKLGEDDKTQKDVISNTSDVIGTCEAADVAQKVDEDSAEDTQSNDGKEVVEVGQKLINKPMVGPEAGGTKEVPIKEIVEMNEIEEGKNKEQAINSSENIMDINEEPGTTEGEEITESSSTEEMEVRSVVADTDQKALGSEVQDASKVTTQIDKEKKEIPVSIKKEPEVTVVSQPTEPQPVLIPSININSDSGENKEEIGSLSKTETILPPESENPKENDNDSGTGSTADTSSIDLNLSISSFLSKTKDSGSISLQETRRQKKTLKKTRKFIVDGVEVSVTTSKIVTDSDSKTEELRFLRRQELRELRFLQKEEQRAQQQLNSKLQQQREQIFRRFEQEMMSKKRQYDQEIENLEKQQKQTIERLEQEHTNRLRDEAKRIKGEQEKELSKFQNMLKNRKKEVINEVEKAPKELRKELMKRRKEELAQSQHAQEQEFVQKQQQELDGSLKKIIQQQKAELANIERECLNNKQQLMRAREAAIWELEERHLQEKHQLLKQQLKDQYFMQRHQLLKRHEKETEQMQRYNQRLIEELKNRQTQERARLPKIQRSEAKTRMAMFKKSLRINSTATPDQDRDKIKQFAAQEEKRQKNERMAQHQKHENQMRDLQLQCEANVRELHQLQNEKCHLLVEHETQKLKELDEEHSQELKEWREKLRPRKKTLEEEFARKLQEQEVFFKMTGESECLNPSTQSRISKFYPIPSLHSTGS
Myosin light chain kinase family member 4 (Homo sapiens), sequence (Q86YV6 whole entry): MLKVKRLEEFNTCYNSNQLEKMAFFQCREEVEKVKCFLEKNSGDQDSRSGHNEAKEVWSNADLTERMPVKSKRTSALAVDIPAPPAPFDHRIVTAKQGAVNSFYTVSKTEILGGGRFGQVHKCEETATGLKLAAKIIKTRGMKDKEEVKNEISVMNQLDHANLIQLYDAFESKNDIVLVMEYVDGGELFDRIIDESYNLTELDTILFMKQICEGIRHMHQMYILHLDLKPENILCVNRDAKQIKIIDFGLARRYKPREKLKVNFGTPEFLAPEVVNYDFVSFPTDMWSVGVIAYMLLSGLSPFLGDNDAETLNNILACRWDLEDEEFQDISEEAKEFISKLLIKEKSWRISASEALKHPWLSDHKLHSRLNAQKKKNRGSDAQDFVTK

C[C@H](c1cccc(C#N)c1)n1cc(Cl)cc(C(N)=O)c1=N [(R)-9s]
residual activity [1]: 84% | residual activity [2]: 94% | residual activity [3]: 97% | residual activity [4]: 75% | residual activity [5]: 100% | residual activity [6]: 97% | residual activity [7]: 97% | residual activity [8]: 89% | residual activity [9]: 100% | residual activity [10]: 100% | residual activity [11]: 53% | residual activity [12]: 43% | residual activity [13]: 88% | residual activity [14]: 76% | residual activity [15]: 95% | residual activity [16]: 100% | residual activity [17]: 100% | residual activity [18]: 100% | residual activity [19]: 100% | residual activity [20]: 100% | residual activity [21]: 68% | residual activity [22]: 100% | residual activity [23]: 100% | residual activity [24]: 100% | residual activity [25]: 92% | residual activity [26]: 100% | residual activity [27]: 100% | residual activity [28]: 58% | residual activity [29]: 91% | residual activity [30]: 87% | residual activity [31]: 83% | residual activity [32]: 92% | residual activity [33]: 97% | residual activity [34]: 95% | residual activity [35]: 100% | residual activity [36]: 88% | residual activity [37]: 67% | residual activity [38]: 77% | residual activity [39]: 92% | residual activity [40]: 78% | residual activity [41]: 100% | inhibition [42]: 7.03% | inhibition [43]: 10.7% | inhibition [44]: -2.33% | inhibition [45]: 3.44%

C[C@@H](c1cccc(C#N)c1)n1cc(Cl)cc(C(N)=O)c1=N [(S)-9s]
residual activity [1]: 78% | residual activity [2]: 96% | residual activity [3]: 96% | residual activity [4]: 93% | residual activity [5]: 100% | residual activity [6]: 96% | residual activity [7]: 77% | residual activity [8]: 88% | residual activity [9]: 96% | residual activity [10]: 100% | residual activity [11]: 77% | residual activity [12]: 67% | residual activity [13]: 100% | residual activity [14]: 81% | residual activity [15]: 88% | residual activity [16]: 89% | residual activity [17]: 99% | residual activity [18]: 100% | residual activity [19]: 100% | residual activity [20]: 100% | residual activity [21]: 85% | residual activity [22]: 100% | residual activity [23]: 100% | residual activity [24]: 100% | residual activity [25]: 100% | residual activity [26]: 85% | residual activity [27]: 100% | residual activity [28]: 91% | residual activity [29]: 100% | residual activity [30]: 86% | residual activity [31]: 87% | residual activity [32]: 93% | residual activity [33]: 93% | residual activity [34]: 95% | residual activity [35]: 88% | residual activity [36]: 99% | residual activity [37]: 75% | residual activity [38]: 94% | residual activity [39]: 100% | residual activity [40]: 72% | residual activity [41]: 100% | inhibition [42]: -3.38% | inhibition [43]: 16.1% | inhibition [44]: 0.47% | inhibition [45]: -1.05%
